In patent US20240238424A1, “HETEROBIFUNCTIONAL COMPOUNDS AND METHODS OF TREATING DISEASE” (Halda Therapeutics OpCo, Inc., priority 2021, published 2024):

Target: T1, GSPT1 (Homo sapiens, UniProt P15170+Q96SW2)
T1 construct: host or cells: HEK293 LgBiT cell line
Experiment: GSPT1 HiBit degradation assay
Assay type: cell-based
Settings: Table 3; HEK293 LgBiT cells expressing GSPT1_HiBiT, luminescence after 6 hours
Excerpt: Promega developed a HEK293 cell line that constitutively expresses LgBiT protein and GSPT1_HiBiT fusion protein. When both proteins are present, the HiBiT portion of the fusion protein combines with LgBiT protein to form a functional luciferase enzyme. Endurazine, a cell permeable small molecule, is converted by cellular esterases into furimazine, which the luciferase enzyme uses as a substrate to generate luminescence. When GSPT1 is degraded, the HiBit is also degraded. This prevents formation of fully functional luciferase, leading to a loss in luminescence. GSPT1 degradation therefore correlates with a decrease in luminescence and can be measured continuously over time. The concentration of compound at which 50% GSPT1 degradation occurs (DC50) was calculated using this system.
• HEK293 LgBiT Cell line (Promega Custom) • Endurazine Substrate (Promega Cat. #N2570) • DMEM (Gibco Cat. #11995) • Penicillin/Streptomycin (Gibco Cat. #15140-122) • Heat Inactivated Fetal Bovine Serum (Gibco Cat. #A38400-01) • Hygromycin B (Gibco Cat. #10-687-010) • 384 Well TC Treated White Microplate (Perkin Elmer Cat. #6007680)
HEK293 LgBiT cells were cultured in DMEM Media supplemented with 10% FBS, 5% Pen/Strep, 200 μg/ml hygromycin and stored in an incubator set at 37° C. and 5% CO2. 18-24 hours prior to compound treatment, HEK293 LgBiT cells were seeded at 1000 cells/well in a 384-well microplate in 25 μl complete media. The plate was spun at 300 g for 30 seconds and stored in the incubator overnight. The next day, compounds were titrated in DMSO and added to media supplemented with endurazine substrate. A 25 ul aliquot of 2× compound/endurazine in media were then added to the 384-well microplate with seeded cells. (Endurazine was used at a final concentration of 0.5×). The plate was spun at 300 g for 30 seconds and stored in the incubator. After 6 hours the plate was read on a Perkin Elmer MultiMode Plate Reader Envision 2105 to measure luminescence signal.

T1 sequence (P15170 whole entry): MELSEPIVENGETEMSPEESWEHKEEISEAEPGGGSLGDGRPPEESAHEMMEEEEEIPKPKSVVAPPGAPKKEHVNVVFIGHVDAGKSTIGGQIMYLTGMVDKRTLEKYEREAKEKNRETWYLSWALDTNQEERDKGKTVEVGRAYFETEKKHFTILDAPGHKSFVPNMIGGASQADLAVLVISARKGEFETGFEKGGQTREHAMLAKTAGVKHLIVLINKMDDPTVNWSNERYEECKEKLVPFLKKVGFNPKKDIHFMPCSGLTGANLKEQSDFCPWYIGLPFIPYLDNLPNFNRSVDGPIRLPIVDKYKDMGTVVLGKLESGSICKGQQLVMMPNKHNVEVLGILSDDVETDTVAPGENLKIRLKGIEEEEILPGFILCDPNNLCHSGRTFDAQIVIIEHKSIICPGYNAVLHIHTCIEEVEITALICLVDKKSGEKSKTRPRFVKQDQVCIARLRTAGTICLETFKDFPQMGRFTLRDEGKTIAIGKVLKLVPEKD
T1 sequence (Q96SW2 whole entry): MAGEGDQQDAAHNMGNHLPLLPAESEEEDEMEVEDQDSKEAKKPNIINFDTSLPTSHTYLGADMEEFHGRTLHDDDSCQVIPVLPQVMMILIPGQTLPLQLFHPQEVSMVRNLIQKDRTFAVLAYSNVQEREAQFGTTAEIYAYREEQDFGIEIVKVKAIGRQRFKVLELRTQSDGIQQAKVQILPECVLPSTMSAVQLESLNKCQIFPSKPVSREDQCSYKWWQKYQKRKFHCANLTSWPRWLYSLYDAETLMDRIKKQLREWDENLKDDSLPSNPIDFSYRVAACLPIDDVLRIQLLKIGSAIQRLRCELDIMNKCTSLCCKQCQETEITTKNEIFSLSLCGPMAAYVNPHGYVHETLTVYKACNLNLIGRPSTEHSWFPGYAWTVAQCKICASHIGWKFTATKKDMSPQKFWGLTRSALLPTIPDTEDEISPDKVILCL
T1 sequence (Q16531 whole entry partner): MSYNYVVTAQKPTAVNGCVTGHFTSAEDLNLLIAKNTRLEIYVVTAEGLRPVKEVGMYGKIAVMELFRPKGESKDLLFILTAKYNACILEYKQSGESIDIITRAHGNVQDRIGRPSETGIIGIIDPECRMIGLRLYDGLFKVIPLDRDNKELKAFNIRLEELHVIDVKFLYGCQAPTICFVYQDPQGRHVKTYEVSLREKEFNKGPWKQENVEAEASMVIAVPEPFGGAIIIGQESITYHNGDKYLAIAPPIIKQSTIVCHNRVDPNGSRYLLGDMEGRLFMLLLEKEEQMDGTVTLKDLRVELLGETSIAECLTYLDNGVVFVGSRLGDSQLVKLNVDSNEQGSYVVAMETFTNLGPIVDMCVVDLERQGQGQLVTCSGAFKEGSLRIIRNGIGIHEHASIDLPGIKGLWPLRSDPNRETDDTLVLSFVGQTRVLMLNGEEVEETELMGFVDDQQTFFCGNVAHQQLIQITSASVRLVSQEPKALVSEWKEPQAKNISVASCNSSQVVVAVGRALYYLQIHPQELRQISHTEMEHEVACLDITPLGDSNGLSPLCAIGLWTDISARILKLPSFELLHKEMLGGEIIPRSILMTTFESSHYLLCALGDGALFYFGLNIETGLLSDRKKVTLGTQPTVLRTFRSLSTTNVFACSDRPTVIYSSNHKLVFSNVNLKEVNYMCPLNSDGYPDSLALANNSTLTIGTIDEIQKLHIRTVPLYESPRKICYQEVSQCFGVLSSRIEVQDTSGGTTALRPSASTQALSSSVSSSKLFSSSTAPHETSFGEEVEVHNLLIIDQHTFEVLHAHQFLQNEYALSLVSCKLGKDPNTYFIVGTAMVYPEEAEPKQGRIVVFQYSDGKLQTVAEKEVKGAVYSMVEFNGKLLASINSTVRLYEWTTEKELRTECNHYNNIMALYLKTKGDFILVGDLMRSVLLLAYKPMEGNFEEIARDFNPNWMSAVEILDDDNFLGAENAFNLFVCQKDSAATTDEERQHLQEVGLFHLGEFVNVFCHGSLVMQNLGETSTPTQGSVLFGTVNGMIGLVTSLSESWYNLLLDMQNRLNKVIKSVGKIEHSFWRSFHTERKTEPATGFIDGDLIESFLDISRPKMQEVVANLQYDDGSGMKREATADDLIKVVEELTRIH

Structure (SMILES) | DC50 [µM]
COc1cc(N2CCN(C(=O)COCCOCCOCCOCCOCCOCCOCCOCCOc3cc(Cl)cc(NC(=O)NCc4ccc5c(c4)CN(C4CCC(=O)NC4=O)C5=O)c3)CC2)ccc1Nc1ncc(Cl)c(Nc2ccccc2P(C)(C)=O)n1 (stereo not drawn) [Compound I-26] | > 10
COc1cc(N2CCN(C(=O)COCCOCCOCCOCCOCCOCCOCCOCCc3cc(Cl)cc(NC(=O)NCc4ccc5c(c4)CN(C4CCC(=O)NC4=O)C5=O)c3)CC2)ccc1Nc1ncc(Cl)c(Nc2ccccc2P(C)(C)=O)n1 (stereo not drawn) [Compound I-27] | 5 to 10
CC1(C)[C@H](NC(=O)c2ccc(OCCOCCOCCOCCOCCOCCOCCOCCOCCOCCOCCc3cc(Cl)cc(NC(=O)NCc4ccc5c(c4)CN(C4CCC(=O)NC4=O)C5=O)c3)cc2)C(C)(C)[C@H]1Oc1ccc(C#N)c(Cl)c1 (stereo partly drawn) [Compound I-29] | 0.25 to 5
C=CC(=O)Nc1cc(Nc2nccc(-c3cn(C)c4ccccc34)n2)c(OC)cc1N(C)CCN(C)CCOCCOCCOCCOCCOCCOCCOc1cc(Cl)cc(NC(=O)NCc2ccc3c(c2)CN(C2CCC(=O)NC2=O)C3=O)c1 (stereo not drawn) [Compound I-33] | 5 to 10
C=CC(=O)Nc1cc(Nc2nccc(-c3cn(C)c4ccccc34)n2)c(OC)cc1N(C)CCN(C)CCOCCOCCOCCOCCOCCOCCc1cc(Cl)cc(NC(=O)NCc2ccc3c(c2)CN(C2CCC(=O)NC2=O)C3=O)c1 (stereo not drawn) [Compound I-34] | 5 to 10
C=CC(=O)Nc1cc(Nc2nccc(-c3cn(C)c4ccccc34)n2)c(OC)cc1N(C)CCN(C)CCOCCOCCOCCOCCOCCOCCOCCOCCc1cc(Cl)cc(NC(=O)NCc2ccc3c(c2)CN(C2CCC(=O)NC2=O)C3=O)c1 (stereo not drawn) [Compound I-35] | > 10
C=CC(=O)Nc1cc(Nc2nccc(-c3cn(C)c4ccccc34)n2)c(OC)cc1N(C)CCN(C)CCOCCOCCOCCOCCOCCOCCOCCOCCOCCOCCc1cc(Cl)cc(NC(=O)NCc2ccc3c(c2)CN(C2CCC(=O)NC2=O)C3=O)c1 (stereo not drawn) [Compound I-36] | 5 to 10
COc1cc(N2CCN(C(=O)COCCOCCOCCOCCOCCOCCOCCOCCOCCOCCc3cc(Cl)cc(NC(=O)NCc4ccc5c(c4)CN(C4CCC(=O)NC4=O)C5=O)c3)CC2)ccc1Nc1ncc(Cl)c(Nc2ccccc2P(C)(C)=O)n1 (stereo not drawn) [Compound I-45] | 5 to 10
CCN(CCOCCOCCOCCOCCOCCOCCCCCCCCCCCCCCc1cc(Cl)cc(NC(=O)NCc2ccc3c(c2)CN(C2CCC(=O)NC2=O)C3=O)c1)CCOc1ccc(C(=O)c2c(-c3ccc(O)cc3)sc3cc(O)ccc23)cc1 (stereo not drawn) [Compound I-56] | > 10
C=CC(=O)Nc1cc(Nc2nccc(-c3cn(C)c4ccccc34)n2)c(OC)cc1N(C)CCN(C)CCOCCOCCOCCOCCOCCOCCOCCOCCOc1cc(Cl)cc(NC(=O)NCc2ccc3c(c2)CN(C2CCC(=O)NC2=O)C3=O)c1 (stereo not drawn) [Compound I-57] | > 10
CCN(CCOCCOCCOCCOCCCCCCCCCCCCCCc1cc(Cl)cc(NC(=O)NCc2ccc3c(c2)CN(C2CCC(=O)NC2=O)C3=O)c1)CCOc1ccc(C(=O)c2c(-c3ccc(O)cc3)sc3cc(O)ccc23)cc1 (stereo not drawn) [Compound I-59] | 0.25 to 5
C=CC(=O)Nc1cc(Nc2nccc(-c3cn(C)c4ccccc34)n2)c(OC)cc1N(C)CCN(C)CCOCCOCCOCCOCCOCCOCCOCCOCCOCCOCCOc1cc(Cl)cc(NC(=O)NCc2ccc3c(c2)CN(C2CCC(=O)NC2=O)C3=O)c1 (stereo not drawn) [Compound I-60] | 5 to 10
Cc1c(CC(=O)N(C)C)ccc(NC(=O)c2nn([C@H]3CCCN(C(=O)/C=C/CN(C)CCOCCOCCOCCOCCOCCOCCOCCOCCOCCOCCCCCCCCc4cc(Cl)cc(NC(=O)NCc5ccc6c(c5)CN(C5CCC(=O)NC5=O)C6=O)c4)C3)c3ncnc(N)c23)c1C (stereo partly drawn) [Compound I-66] | 0.25 to 5

The remaining lines, values ahead:

DC50 [µM] | Structure (SMILES)
0.25 to 5 | CC1(C)[C@H](NC(=O)c2ccc(OCCOCCOCCOCCOCCOCCOCCOCCOCCc3cc(Cl)cc(NC(=O)NCc4ccc5c(c4)CN(C4CCC(=O)NC4=O)C5=O)c3)cc2)C(C)(C)[C@H]1Oc1ccc(C#N)c(Cl)c1 (stereo partly drawn) [Compound I-28]
< 0.25 | CCN(CCOCCOCCOCCOCCOCCOCCCCCCCCc1cc(Cl)cc(NC(=O)NCc2ccc3c(c2)CN(C2CCC(=O)NC2=O)C3=O)c1)CCOc1ccc(C(=O)c2c(-c3ccc(O)cc3)sc3cc(O)ccc23)cc1 (stereo not drawn) [Compound I-55]
< 0.25 | CCN(CCCCCCCCc1cc(Cl)cc(NC(=O)NCc2ccc3c(c2)CN(C2CCC(=O)NC2=O)C3=O)c1)CCOc1ccc(C(=O)c2c(-c3ccc(O)cc3)sc3cc(O)ccc23)cc1 (stereo not drawn) [Compound I-58]
< 0.25 | C=CC(=O)Nc1cc(Nc2nccc(-c3cn(C)c4ccccc34)n2)c(OC)cc1N(C)CCN(C)CCOCCOCCOCCOCCCCCCCCc1cc(Cl)cc(NC(=O)NCc2ccc3c(c2)CN(C2CCC(=O)NC2=O)C3=O)c1 (stereo not drawn) [Compound I-61]
< 0.25 | C=CC(=O)Nc1cc(Nc2nccc(-c3cn(C)c4ccccc34)n2)c(OC)cc1N(C)CCN(C)CCOCCOCCOCCOCCOCCOCCCCCCCCc1cc(Cl)cc(NC(=O)NCc2ccc3c(c2)CN(C2CCC(=O)NC2=O)C3=O)c1 (stereo not drawn) [Compound I-62]
< 0.25 | C=CC(=O)Nc1cc(Nc2nccc(-c3cn(C)c4ccccc34)n2)c(OC)cc1N(C)CCN(C)CCOCCOCCOCCOCCOCCOCCOCCOCCOCCOCCCCCCCCc1cc(Cl)cc(NC(=O)NCc2ccc3c(c2)CN(C2CCC(=O)NC2=O)C3=O)c1 (stereo not drawn) [Compound I-63]
< 0.25 | Cc1c(CC(=O)N(C)C)ccc(NC(=O)c2nn([C@H]3CCCN(C(=O)/C=C/CN(C)CCOCCOCCOCCOCCCCCCCCc4cc(Cl)cc(NC(=O)NCc5ccc6c(c5)CN(C5CCC(=O)NC5=O)C6=O)c4)C3)c3ncnc(N)c23)c1C (stereo partly drawn) [Compound I-64]
< 0.25 | Cc1c(CC(=O)N(C)C)ccc(NC(=O)c2nn(C3CCCN(C(=O)/C=C/CN(C)CCOCCOCCOCCOCCOCCOCCCCCCCCc4cc(Cl)cc(NC(=O)NCc5ccc6c(c5)CN(C5CCC(=O)NC5=O)C6=O)c4)C3)c3ncnc(N)c23)c1C (stereo not drawn) [Compound I-65]

Same assay, conditions: Table 3A; HEK293 LgBiT cells expressing GSPT1_HiBiT, luminescence after 6 hours

DC50 [µM] | Structure (SMILES)
> 10 | Cc1c(CC(=O)N(C)C)ccc(NC(=O)c2nn([C@@H]3CCCN(C(=O)/C=C/CN(C)CCOCCOCCOCCOCCOCCOCCc4cc(Cl)cc(NC(=O)NCc5ccc6c(c5)CN(C5CCC(=O)NC5=O)C6=O)c4)C3)c3ncnc(N)c23)c1C (stereo partly drawn) [Compound I-23, 4-amino-1-[(3R)-1-[(E)-4-[2-[2-[2-[2-[2-[2-[2-[3-chloro-5-[[2-(2,6-dioxo-3-piperidyl)-1-oxo-isoindolin-5-yl]methylcarbamoylamino]phenyl]ethoxy]ethoxy]ethoxy]ethoxy]ethoxy]ethoxy]ethyl-methyl-amino]but-2-enoyl]-3-piperidyl]-N-[4-[2-(dimethylamino)-2-oxo-ethyl]-2,3-dimethyl-phenyl]pyrazolo [3,4-d]pyrimidine-3-carboxamide]
> 10 | COc1cc(N2CCN(C(=O)COCCOCCOCCOCCOCCOCCOCCOCCOCCOCCOc3cc(Cl)cc(NC(=O)NCc4ccc5c(c4)CN(C4CCC(=O)NC4=O)C5=O)c3)CC2)ccc1Nc1ncc(Cl)c(Nc2ccccc2P(C)(C)=O)n1 (stereo not drawn) [Compound I-24, 1-[3-chloro-5-[2-[2-[2-[2-[2-[2-[2-[2-[2-[2-[2-[4-[4-[[5-chloro-4-(2-dimethylphosphorylanilino)pyrimidin-2-yl]amino]-3-methoxy-phenyl]piperazin-1-yl]-2-oxo-ethoxy]ethoxy]ethoxy]ethoxy]ethoxy]ethoxy]ethoxy]ethoxy]ethoxy]ethoxy]ethoxy]phenyl]-3-[[2-(2,6-dioxo-3-piperidyl)-1-oxo-isoindolin-5-yl]methyl]urea]
> 10 | COc1cc(N2CCN(C(=O)COCCOCCOCCOCCOCCOCCOc3cc(Cl)cc(NC(=O)NCc4ccc5c(c4)CN(C4CCC(=O)NC4=O)C5=O)c3)CC2)ccc1Nc1ncc(Cl)c(Nc2ccccc2P(C)(C)=O)n1 (stereo not drawn) [Compound I-25]
